Read-outs that look alike come from different tables or passages of the source.
Columns and labels:
CRBN = biological target: T1, CRBN (Homo sapiens, UniProt Q96SW2); assay: Cellular Thermal Shift Assay (CETSA) in SNU-398 cell lysates; format: binding; settings: from 51 to 56° C., read-out: overall thermal shift of CRBN
T1 construct: endogenous in cells; host or cells: SNU-398 cell lysate
Experimental: Cells were washed with cold PBS and harvested into 50 mL tubes and centrifuged at 1,200×g for 5 min. For cell lysis, cells were resuspended in 1× NP-40 lysis buffer containing 10 mM Tris-HCl (pH 7.4), 150 mM NaCl, 2.7 mM KCl and 0.4% NP-40, and rotated end-over-end at 4° C. for 30 min. The cell lysate was centrifuged at 20,000 rpm for 10 min at 4° C. and the supernatant was collected. The cell lysate was divided into two aliquots, with one aliquot being treated with QE-18-WG07, and the other aliquot with DMSO control. After specific incubation time at room temperature, the respective lysates were divided into smaller aliquots of 40 μL and heated individually at different temperatures (51-56° C.) for 3 min in a thermal cycler, followed by a 3-min cool-down at room temperature. The heated lysates were centrifuged at 15,000 rpm for 10 min at 4° C. to separate the soluble fractions from the precipitates. The supernatants were transferred to new microtubes and analyzed by SDS-PAGE, followed by western blot analysis described in Example 4. The integrated band intensities were quantified by ImageJ. The thermal curves were analyzed by nonlinear regression using Graph Pad Prism.

SALL4 (1-300aa) protein = biological target: T2, SALL4 (1-300aa) protein (Homo sapiens, UniProt Q9UJQ4); assay: Thermal shift assay (TSA) with Sypro Orange; format: binding
T2 construct: SALL4 (1-300aa) cloned into this vector was expressed with the N-terminal 6-His tags; His6 (pET His6 TEV LIC vector 2B-T, TEV site) (N); made in house; host or cells: E. coli BL21 (DE3)/pLysS
T2 sequence (Q9UJQ4 1-300): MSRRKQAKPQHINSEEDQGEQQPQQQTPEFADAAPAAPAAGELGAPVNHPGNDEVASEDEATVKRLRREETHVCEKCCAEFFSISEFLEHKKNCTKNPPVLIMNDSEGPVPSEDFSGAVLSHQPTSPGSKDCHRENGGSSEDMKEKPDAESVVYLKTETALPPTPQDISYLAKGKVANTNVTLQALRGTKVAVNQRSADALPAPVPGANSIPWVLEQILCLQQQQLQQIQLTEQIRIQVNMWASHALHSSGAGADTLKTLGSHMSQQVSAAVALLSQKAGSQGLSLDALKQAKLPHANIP
Experimental: A library of 50,000 small molecules from the Novartis Biomedical Research Institute (NIBR) was screened at 50 μM and 100 μM against 13.8 μM of purified SALL4 (1-300aa) protein in the buffer containing potassium phosphate (100 mM) and NaCl (100 mM) at pH 7. Screening assay was performed in 384-well thin wall white PCR plates using LightCyler® 480 Real-Time PCR System (Roche Applied Sciences). A 7-min run was started at 30° C. and ended at 90° C. Sypro Orange was used as the sensitive fluorescent dye for monitoring thermal protein denaturation. Hits were defined as compounds that can induce a change in protein melting points 3 times higher than the standard deviations of the apo-protein melting point from DMSO control.
To experimentally assess the stoichiometry of the binding between SALL4 (1-300aa) and QE-18-WG07, the inventors titrated 13.8 μM of purified recombinant SALL4 (1-300aa) protein with 12 increasing concentrations of QE-18-WG07 and evaluated the dose-response correlation in the ΔTm shift by following the protocol for TSA in Example 7.

IKZF1 = biological target: T3, IKZF1 (Homo sapiens, UniProt Q13422); assay: Immunoblot of IKZF1 in SNU-398 HCC cells; format: cell-based; settings: SNU-398 cells
T3 construct: with immunoblots in SNU-398 HCC cells; endogenous in cells; host or cells: SNU-398 HCC cells
Experimental: RIPA buffer containing freshly added protease inhibitors (2 mM PMSF) and protease inhibitor cocktail was used for cell lysis. The lysed cells were incubated for 10 min on ice and subsequently centrifuged at 4° C. for 10 min at 14,000 rpm. The protein concentrations of cell lysates were assessed using Bradford Assay as per manufacturer's instructions. The samples were denatured using 4× Sample buffer at 95° C. for 5 min. The samples were size resolved using polyacrylamide gel (8%) and Mini-PROTEAN Tetra Cell module. The size-resolved proteins were transferred onto PVDF via electroblotting using Mini Trans-Blot® module. The membrane was blocked using 5% BSA in TBST. The membrane was incubated with appropriate primary antibody (overnight) and secondary antibody (1 h). Immobilon Crescendo Western HRP substrate was used for signal development and images were acquired using darkroom development techniques.

SNU-398 cells = assay: CellTiter-Glo viability assay, SNU-398; format: cell-based, human; settings: for IC50: read-out: IC50 of cell proliferation / viability
Experimental: (§1) Cells were plated in RPMI culture media (40 μL) in 384-well white, flat-bottom plates (Corning) and incubated at 37° C. in a humidified atmosphere of 5% CO2 overnight. The numbers of cells per well were 1,500 for SNU-398 and SNU-182, 750 for SNU-387, SNU-449, SNU-475 and SNU-423, and 1,000 for H661 and H1299. After overnight incubation, 10 μL of drug (1% DMSO in RPMI) at designed concentrations were added to the cells. The cells were then incubated for 16, 24, 48, 72, or 96 h at 37° C. in a humidified atmosphere of 5% CO2 before CellTiter-Glo reagent (10 μL) was dispensed to the wells. The cells were incubated at room temperature for a minimum of 10 min. After that, luminescence readings were recorded by a Microplate Reader (PHERAstar or Tecan Infinite M200 Pro) according to the manufacturer's instruction for measuring the luminescence.

[1] = tested on: SNU-387, SNU-449, SNU-475, and H1299 cells; assay: CellTiter-Glo viability assay, SALL4-low cell panel; format: cell-based, human; settings: 72 h cell viability panel of HCC and lung cancer cell lines
Experimental: as §1

[2] = QE-18-WG07 0.0061 μM, 30 min incubation
[3] = QE-18-WG07 0.0122 μM, 30 min incubation
[4] = QE-18-WG07 0.0488 μM, 30 min incubation
[5] = QE-18-WG07 0.0977 μM, 30 min incubation
[6] = QE-18-WG07 0.1953 μM, 30 min incubation
[7] = QE-18-WG07 0.7813 μM, 30 min incubation
[8] = QE-18-WG07 1.5625 μM, 30 min incubation
[9] = QE-18-WG07 3.1250 μM, 30 min incubation
[10] = QE-18-WG07 6.2500 μM, 30 min incubation
[11] = QE-18-WG07 12.5000 μM, 30 min incubation
[12] = QE-18-WG07 25.0000 μM, 30 min incubation
[13] = QE-18-WG07 50.0000 μM, 30 min incubation

T3 sequence (Q13422 whole entry): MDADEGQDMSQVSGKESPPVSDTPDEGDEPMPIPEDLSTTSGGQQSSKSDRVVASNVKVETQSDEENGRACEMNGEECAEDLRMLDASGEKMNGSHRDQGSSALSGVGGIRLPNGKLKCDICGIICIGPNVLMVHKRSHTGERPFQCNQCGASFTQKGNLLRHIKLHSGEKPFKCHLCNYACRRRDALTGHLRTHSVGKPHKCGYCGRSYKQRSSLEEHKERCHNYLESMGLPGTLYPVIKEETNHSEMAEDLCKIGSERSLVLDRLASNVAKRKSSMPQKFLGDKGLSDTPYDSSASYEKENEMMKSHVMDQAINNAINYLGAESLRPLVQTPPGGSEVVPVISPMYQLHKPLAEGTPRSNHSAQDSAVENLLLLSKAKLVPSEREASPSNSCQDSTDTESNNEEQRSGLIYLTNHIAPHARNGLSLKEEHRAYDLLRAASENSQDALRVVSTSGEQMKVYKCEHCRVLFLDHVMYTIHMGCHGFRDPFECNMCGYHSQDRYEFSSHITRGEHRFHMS
T1 sequence (Q96SW2 whole entry): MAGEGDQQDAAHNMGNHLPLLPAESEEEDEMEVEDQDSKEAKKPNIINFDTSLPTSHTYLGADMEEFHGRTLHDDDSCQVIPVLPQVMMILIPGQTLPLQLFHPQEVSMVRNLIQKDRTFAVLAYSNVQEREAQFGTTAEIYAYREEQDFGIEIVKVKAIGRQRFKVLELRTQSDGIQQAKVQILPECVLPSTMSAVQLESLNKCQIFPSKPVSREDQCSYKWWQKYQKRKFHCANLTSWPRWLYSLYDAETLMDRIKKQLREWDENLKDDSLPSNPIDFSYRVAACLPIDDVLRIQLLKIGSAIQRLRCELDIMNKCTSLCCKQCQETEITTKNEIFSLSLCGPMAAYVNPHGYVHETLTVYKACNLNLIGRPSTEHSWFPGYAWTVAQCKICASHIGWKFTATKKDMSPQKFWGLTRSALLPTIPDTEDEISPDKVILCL

## COc1ccccc1NC(=O)Nc1ccc([N+](=O)[O-])cc1O [QE-18-WG07]
CRBN
  ΔTm at 50 µM: ≤ 5 °C
SALL4 (1-300aa) protein; 13.8 μM SALL4 (1-300aa), 30 min incubation
  concentration at which ΔTm saturation occurs: ≥ 12.5 µM
SALL4 (1-300aa) protein; [2]
  SALL4 (1-300) Melting Temperature Shift (° C.) Rep 1: −0.357 °C
  SALL4 (1-300) Melting Temperature Shift (° C.) Rep 2: −0.357 °C
SALL4 (1-300aa) protein; [3]
  SALL4 (1-300) Melting Temperature Shift (° C.) Rep 1: −0.267 °C
  SALL4 (1-300) Melting Temperature Shift (° C.) Rep 2: −0.267 °C
SALL4 (1-300aa) protein; [4]
  SALL4 (1-300) Melting Temperature Shift (° C.) Rep 1: −0.077 °C
  SALL4 (1-300) Melting Temperature Shift (° C.) Rep 2: −0.357 °C
SALL4 (1-300aa) protein; [5]
  SALL4 (1-300) Melting Temperature Shift (° C.) Rep 1: −0.357 °C
  SALL4 (1-300) Melting Temperature Shift (° C.) Rep 2: −0.357 °C
SALL4 (1-300aa) protein; [6]
  SALL4 (1-300) Melting Temperature Shift (° C.) Rep 1: −0.267 °C
  SALL4 (1-300) Melting Temperature Shift (° C.) Rep 2: −0.267 °C
SALL4 (1-300aa) protein; [7]
  SALL4 (1-300) Melting Temperature Shift (° C.) Rep 1: −0.167 °C
  SALL4 (1-300) Melting Temperature Shift (° C.) Rep 2: −0.167 °C
SALL4 (1-300aa) protein; [8]
  SALL4 (1-300) Melting Temperature Shift (° C.) Rep 1: 0.503 °C
  SALL4 (1-300) Melting Temperature Shift (° C.) Rep 2: 0.503 °C
SALL4 (1-300aa) protein; [9]
  SALL4 (1-300) Melting Temperature Shift (° C.) Rep 1: 0.413 °C
  SALL4 (1-300) Melting Temperature Shift (° C.) Rep 2: 0.793 °C
SALL4 (1-300aa) protein; [10]
  SALL4 (1-300) Melting Temperature Shift (° C.) Rep 1: 0.703 °C
  SALL4 (1-300) Melting Temperature Shift (° C.) Rep 2: 0.703 °C
SALL4 (1-300aa) protein; [11]
  SALL4 (1-300) Melting Temperature Shift (° C.) Rep 1: 1.373 °C
  SALL4 (1-300) Melting Temperature Shift (° C.) Rep 2: 1.083 °C
SALL4 (1-300aa) protein; [12]
  SALL4 (1-300) Melting Temperature Shift (° C.) Rep 1: 1.273 °C
  SALL4 (1-300) Melting Temperature Shift (° C.) Rep 2: 1.273 °C
SALL4 (1-300aa) protein; [13]
  SALL4 (1-300) Melting Temperature Shift (° C.) Rep 1: 1.273 °C
  SALL4 (1-300) Melting Temperature Shift (° C.) Rep 2: 0.983 °C
SALL4 (1-300aa) protein; SALL4(1-300) melting temperature shift, mean ± SD (n = 2), [compound] = 100 μM, 30 min
  ΔTm at 100 µM: 1.15 ± 0.01 °C
SALL4 (1-300aa) protein; [compound] = 100 μM, 30 min
  Thermal Shift Assay Type: Positive shifter
IKZF1
  degradation of IKZF1: did not degrade
SNU-398 cells; 72 h
  IC50: 397 nM
SNU-398 cells; Homo sapiens, 72 h, achieved at 1 μM, read-out: maximum growth inhibition Emax
  Emax at 1 µM: 90 to 100%
SNU-398 cells; Homo sapiens, 72 h cell viability, read-out: half maximal growth inhibition EC50
  EC50: 310 nM
SNU-398 cells; Homo sapiens, SNU-398, 72 h, 72 h
  IC50: 280 nM
[1]
  selectivity of anti-proliferative effect, SALL4-high over SALL4-low cancer cells: up to 58 fold

From patent US20240335429A1, “MOLECULAR GLUE AND SALL4 DEGRADER” (National University of Singapore, priority 2021, published 2024)
